Data from patent publication US11129807B2, “Methods of treating schizophrenia” (Sunovion Pharmaceuticals Inc., priority 2017, dated 2021).

How the values were obtained:
[1] = system: PCP-Induced Hyperactivity Responses in Mice; test: PCP-induced hyperactivity (open field) in mice;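 note: plus means significant inhibition of PCP hyperactivity at P below 0.05 and minus means none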; format: in vivo; conditions: male C57Bl/6J mice, vs. vehicle + PCP
Protocol: (§1) Anti-psychotic like activity of the compounds was evaluated in mice using the PCP hyperactivity and Pre-Pulse Inhibition (PPI) models of schizophrenia.
(§2) Methods: Animals: Male C57Bl/6J mice from Jackson Laboratories (Bar Harbor, Me.) were used. Upon receipt, mice were assigned unique identification numbers (tail marked) and were group housed with 4 mice per cage in OptiMICE ventilated cages. All animals remained housed in groups of four during the remainder of the study. All mice were acclimated to the colony room for at least two weeks prior to testing. During the period of acclimation, mice were examined on a regular basis, handled, and weighed to assure adequate health and suitability. Animals were maintained on a 12/12 light/dark cycle. The room temperature was maintained between 20 and 23° C. with a relative humidity maintained between 30% and 70%. Chow and water were provided ad libitum for the duration of the study. In each test, animals were randomly assigned across treatment groups.
The analysis was configured to divide the open field into a center and periphery zone. Distance traveled was measured from horizontal beam breaks as the mouse moved whereas rearing activity was measured from vertical beam breaks.
Mice were injected with vehicle, test compound, or clozapine (1 mg/kg; i.p) and placed in the OF chambers for 30 min measurement of baseline activity. Mice were then injected with either water or PCP (5 mg/kg; i.p) and placed back in the OF chambers for a 60-minute session. At the end of each OF test session the OF chambers were thoroughly cleaned.

[2] = system: Pre-pulse Inhibition (PPI) in Mice; test: Pre-pulse inhibition (PPI) of startle in mice;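 note: plus grades count prepulse intensities with significant PPI increase at P below 0.05 and minus means no change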; format: in vivo; conditions: 30 min prior to PPI test, male C57Bl/6J mice, vs. vehicle
Protocol: as §1, §2
Prepulse Inhibition of Startle: The acoustic startle is an unconditioned reflex response to an external auditory stimulus. Prepulse inhibition of startle (PPI) refers to the reduction in the startle response caused by the presentation of a low-intensity auditory stimulus prior to the startle stimulus. The PPI paradigm is used for the study of schizophrenia and antipsychotic action due to the similarities between the results from human and rodent studies. […] Various psychotomimetic drugs such as PCP can disrupt PPI. In mice, antipsychotic drugs such as clozapine can reverse the disruption of PPI induced by PCP.
Mice were placed in the PPI chambers (Med Associates) for a 5 min session of white noise (70 dB) habituation. After the habituation period the test session was initiated. The session started with a habituation block of 6 presentations of the startle stimulus alone, followed by 10 PPI blocks, each of which consisted of 6 different types of trials. Trial types were: ‘null’ (no stimuli), ‘startle’ (120 dB), ‘startle plus prepulse’ (4, 8 and 12 dB over background noise, i.e., 74, 78 or 82 dB) and ‘prepulse’ (82 dB). Trial types were presented in a random order within each block. Each trial started with a 50 ms stimulus-free period during which baseline movements were recorded. This was followed by a subsequent 20 ms period during which the prepulse stimulus was presented and responses to the prepulse measured. After a further 100 ms period, the startle stimulus was presented for 40 ms and responses recorded for 100 ms from startle onset. Responses were sampled every ms. The inter-trial interval was variable with an average of 15 s (range from 10 to 20 s). In ‘startle’ trials the basic auditory startle response was measured. The basic startle response was calculated as the mean startle response of all ‘startle’ trials (i.e., excluding the first habituation block). In ‘startle plus prepulse’ trials the degree of inhibition of the normal startle was calculated and expressed as a percentage of the basic startle response.
Mice were treated with vehicle, haloperidol (1 mg/kg; i.p) or test compound 30 min prior to PPI test. The PPI enclosures were cleaned following each test.

[3] = 10 mg/kg Compound + PCP (5 mg/kg; i.p)
[4] = 30 mg/kg Compound + PCP (5 mg/kg; i.p)
[5] = 100 mg/kg Compound + PCP (5 mg/kg; i.p)
[6] = 0.3 mg/kg Compound + PCP (5 mg/kg; i.p)
[7] = 1 mg/kg Compound + PCP (5 mg/kg; i.p)
[8] = 3 mg/kg Compound + PCP (5 mg/kg; i.p)

CCc1cc2c(s1)CCO[C@H]2CNC [Compound 75]
Total Distance Traveled (cm) [1, 3]: + | Total Distance Traveled (cm) [1, 4]: − | Total Distance Traveled (cm) [1, 5]: + | Effect on Pre-pulse Inhibition (PPI) ([2]; 10 mg/kg): − | Effect on Pre-pulse Inhibition (PPI) ([2]; 30 mg/kg): − | Effect on Pre-pulse Inhibition (PPI) ([2]; 100 mg/kg): −

CCc1cc2c(s1)CCO[C@@H]2CNC [Compound 76]
Total Distance Traveled (cm) [1, 3]: − | Total Distance Traveled (cm) [1, 4]: − | Total Distance Traveled (cm) [1, 5]: + | Effect on Pre-pulse Inhibition (PPI) ([2]; 10 mg/kg): − | Effect on Pre-pulse Inhibition (PPI) ([2]; 30 mg/kg): − | Effect on Pre-pulse Inhibition (PPI) ([2]; 100 mg/kg): −

CNCC1OCCc2scc(C)c21 (stereo not drawn) [Compound 78]
Total Distance Traveled (cm) [1, 3]: + | Total Distance Traveled (cm) [1, 4]: + | Total Distance Traveled (cm) [1, 5]: + | Effect on Pre-pulse Inhibition (PPI) ([2]; 10 mg/kg): − | Effect on Pre-pulse Inhibition (PPI) ([2]; 30 mg/kg): − | Effect on Pre-pulse Inhibition (PPI) ([2]; 100 mg/kg): −

c1cc2c(s1)CCO[C@H]2[C@H]1CCCN1 [Compound 102]
Total Distance Traveled (cm) [1, 6]: − | Total Distance Traveled (cm) [1, 7]: + | Total Distance Traveled (cm) [1, 8]: + | Total Distance Traveled (cm) [1, 3]: + | Total Distance Traveled (cm) [1, 4]: + | Effect on Pre-pulse Inhibition (PPI) ([2]; 3 mg/kg): − | Effect on Pre-pulse Inhibition (PPI) ([2]; 10 mg/kg): − | Effect on Pre-pulse Inhibition (PPI) ([2]; 30 mg/kg): −

c1cc2c(s1)CCO[C@@H]2[C@@H]1CCCN1 [Compound 119]
Total Distance Traveled (cm) [1, 3]: + | Total Distance Traveled (cm) [1, 4]: + | Total Distance Traveled (cm) [1, 5]: +

NC[C@@H]1OCCc2ccsc21 [Compound 127]
Total Distance Traveled (cm) [1, 6]: − | Total Distance Traveled (cm) [1, 7]: − | Total Distance Traveled (cm) [1, 8]: + | Total Distance Traveled (cm) [1, 3]: + | Total Distance Traveled (cm) [1, 4]: − | Effect on Pre-pulse Inhibition (PPI) ([2]; 3 mg/kg): +++ | Effect on Pre-pulse Inhibition (PPI) ([2]; 10 mg/kg): − | Effect on Pre-pulse Inhibition (PPI) ([2]; 30 mg/kg): +++

CNC[C@@H]1OCCc2scc(C)c21 [Compound 130]
Total Distance Traveled (cm) [1, 6]: − | Total Distance Traveled (cm) [1, 7]: − | Total Distance Traveled (cm) [1, 8]: + | Total Distance Traveled (cm) [1, 3]: + | Total Distance Traveled (cm) [1, 4]: + | Total Distance Traveled (cm) [1, 5]: + | Effect on Pre-pulse Inhibition (PPI) ([2]; 3 mg/kg): − | Effect on Pre-pulse Inhibition (PPI) ([2]; 10 mg/kg): − | Effect on Pre-pulse Inhibition (PPI) ([2]; 30 mg/kg): −

CNC[C@H]1OCCc2scc(C)c21 [Compound 131]
Total Distance Traveled (cm) [1, 6]: − | Total Distance Traveled (cm) [1, 7]: + | Total Distance Traveled (cm) [1, 8]: + | Effect on Pre-pulse Inhibition (PPI) ([2]; 3 mg/kg): − | Effect on Pre-pulse Inhibition (PPI) ([2]; 10 mg/kg): − | Effect on Pre-pulse Inhibition (PPI) ([2]; 30 mg/kg): −

CNCC1OCCc2c(C)csc21 (stereo not drawn) [Compound 140]
Total Distance Traveled (cm) [1, 3]: − | Total Distance Traveled (cm) [1, 4]: − | Total Distance Traveled (cm) [1, 5]: + | Effect on Pre-pulse Inhibition (PPI) ([2]; 10 mg/kg): − | Effect on Pre-pulse Inhibition (PPI) ([2]; 30 mg/kg): − | Effect on Pre-pulse Inhibition (PPI) ([2]; 100 mg/kg): −

[2H]C([2H])([2H])NC[C@H]1OCCc2sccc21 [Compound 158]
Total Distance Traveled (cm) [1, 7]: + | Total Distance Traveled (cm) [1, 8]: + | Total Distance Traveled (cm) [1, 3]: + | Total Distance Traveled (cm) [1, 4]: + | Total Distance Traveled (cm) [1, 5]: + | Effect on Pre-pulse Inhibition (PPI) ([2]; 3 mg/kg): − | Effect on Pre-pulse Inhibition (PPI) ([2]; 10 mg/kg): − | Effect on Pre-pulse Inhibition (PPI) ([2]; 30 mg/kg): − | Effect on Pre-pulse Inhibition (PPI) ([2]; 100 mg/kg): +++

Cc1csc2c1CCO[C@@H]2CN [Compound 170]
Total Distance Traveled (cm) [1, 6]: − | Total Distance Traveled (cm) [1, 7]: − | Total Distance Traveled (cm) [1, 8]: − | Total Distance Traveled (cm) [1, 3]: − | Total Distance Traveled (cm) [1, 4]: − | Effect on Pre-pulse Inhibition (PPI) ([2]; 3 mg/kg): − | Effect on Pre-pulse Inhibition (PPI) ([2]; 10 mg/kg): +++ | Effect on Pre-pulse Inhibition (PPI) ([2]; 30 mg/kg): +++

CNC[C@@H]1OCCc2c(C)csc21 [Compound 171]
Total Distance Traveled (cm) [1, 6]: − | Total Distance Traveled (cm) [1, 7]: − | Total Distance Traveled (cm) [1, 8]: − | Total Distance Traveled (cm) [1, 3]: − | Total Distance Traveled (cm) [1, 4]: + | Effect on Pre-pulse Inhibition (PPI) ([2]; 3 mg/kg): − | Effect on Pre-pulse Inhibition (PPI) ([2]; 10 mg/kg): − | Effect on Pre-pulse Inhibition (PPI) ([2]; 30 mg/kg): − | Effect on Pre-pulse Inhibition (PPI) ([2]; 100 mg/kg): +++
